# Laboratory results published in patent US9944598B2, “Mono- or di-substituted indole derivatives as dengue viral replication inhibitors” (priority 2014, dated 2018).
# Key:
# [1] = Chiral stability at pH 7.4 (enantiomeric excess by Chiral SFC); type: physicochemical
# Method: The chiral stability of Enantiomer 1A (R=OMe) was evaluated by determination of the enantiomeric excess (ee %) after incubation for 24 h and 48 h in a buffered solution at pH 7.4 at 40° C. and 60° C. To assess the influence of the methoxy-substituent of Enantiomer 1A (R=OMe) on the stability against racemization, the chiral stability of Enantiomer 1′A (R═H) was tested under the same conditions.
# To this end, 5 μM buffered (pH=7.4) solutions of 1A and 1′A were prepared by mixing 25 μL of a 100 μM solution of 1A or 1′A in DMSO with 475 μL aqueous buffer pH 7.4. Samples were taken 24 h and 48 h after incubation at 40° C. and 60° C. The analytical samples were analyzed by Chiral SFC (MS detection) and the chiral purity was expressed as the enantiomeric excess (ee %=% enantiomer A−% enantiomer B).
# [2] = tested on: DENV-3 strain H87 prototype; assay: Tetravalent RT-qPCR assay Protocol B, serotype 3; type: cell-based; conditions: Dengue virus, DENV3, 168 h, RT-qPCR serotype 3 H87, Vero cells, 7 days
# Method: Vero cells (4×10^4) were seeded in 96-well plates. After one day, cell culture medium was replaced with 100 μL assay medium containing a 2×, 3× or 5× serial dilution of the compound (concentration range: 50 μg/mL-0.00038 μg/mL, 50 μg/mL-0.0076 μg/mL, and 50 μg/mL-0.00013 μg/mL, respectively) and 100 μL of dengue virus dilution, where a Ct of ˜20 is achieved in RTqPCR. Following a 2 hour incubation period, the cell monolayer was washed 3 times with assay medium to remove residual, non-adsorbed virus and cultures were further incubated for either 4 days (DENV-2 NGC-Tongalike) or 7 days (DENV-1 Djibouti strain D1/H/IMTSSA/98/606, DENV-3 strain H87 prototype, DENV-4 strain H241) in the presence of the inhibitor. Supernatant was harvested and viral RNA load was determined by real-time quantitative RT-PCR. The 50% effective concentration (EC50), which is defined as the compound concentration that is required to inhibit viral RNA replication by 50%, was determined using logarithmic interpolation (Tables 7 and 8).
# RNA was isolated from 100 μL supernatant with the NucleoSpin 96 Virus kit (Filter Service, Düren, Germany) as described by the manufacturer. The sequences of the TaqMan primers (DENV-For, DENV-Rev; Table 5) and TaqMan probes (DENV-Probe Table 5) were selected from non-structural gene 3 (NS3) or NSS, of the respective flaviviruses using Primer Express software (version 2.0; Applied Biosystems, Lennik, Belgium). The TaqMan probe was fluorescently labelled with 6-carboxyfluorescein (FAM) at the 5′ end as the reporter dye, and with minor groove binder (MGB) at the 3′ end as the quencher (Table 5). One-step, quantitative RT-PCR was performed in a total volume of 25 μL, containing 13.9375 μL H2O, 6.25 μL master mix (Eurogentec, Seraing, Belgium), 0.375 μL forward primer, 0.375 μL reverse primer, 1 μL probe, 0.0625 μL reverse transcriptase (Eurogentec) and 3 μL sample. RT-PCR was performed using the ABI 7500 Fast Real-Time PCR System (Applied Biosystems, Branchburg, N.J., USA) using the following conditions: 30 min at 48° C. and 10 min at 95° C., followed by 40 cycles of 15 s at 95° C. and 1 min at 60° C. The data was analyzed using the ABI PRISM 7500 SDS software (version 1.3.1; Applied Biosystems). For absolute quantification, standard curves were generated using 10-fold dilutions of template preparations of known concentrations.
# Vero cells = assay: in vitro; type: cell-based; conditions: African green monkey
# Method: In parallel, the toxicity of the compounds was assessed on the same plates. Once the read-out for the eGFP signal was done, 10 μL of resazurin, a cell viability stain, was added to all wells of the 384-well plates. The resazurin assay is based on the reduction of the blue resazurin by NADH, produced by the cells, into the highly fluorescent product, resorufin. The formation of pink fluorescent resorufin is directly related to the number of viable cells in the well. The plates were incubated for an additional 5 hours in a fully humidified incubator (37° C., 5% CO2). Next, the plates were measured on an Infinite reader (Tecan) using an excitation wavelength of 530 nm. The half maximal cytotoxic concentration (CC50) was also determined, defined as the concentration required to reduce the resazurin conversion by 50% compared to that of the cell control wells (Table 1). Finally, the selectivity index (SI) is determined for the compounds, which is calculated as followed: SI=CC50/EC50.
Compound,EC50 [2],other results
"COc1cc(NC(C(=O)c2c[nH]c3cc(F)ccc23)c2ccc(Cl)cc2OC)cc(OCCO)c1 (single isomer, unassigned) [Compound 1A, 2-(4-chloro-2-methoxyphenyl)-1-(6-fluoro-1H-indol-3-yl)-2-((3-(2-hydroxyethoxy)-5-methoxyphenyl)amino)ethanone]",< 0.015 µM,"ee % ([1]; 5 μM buffered solution pH 7.4, 40° C., 24 h): 100%; ee % ([1]; 5 μM buffered solution pH 7.4, 40° C., 48 h): 100%; ee % ([1]; 5 μM buffered solution pH 7.4, 60° C., 24 h): 99%; ee % ([1]; 5 μM buffered solution pH 7.4, 60° C., 48 h): 96%"
"COc1cc(NC(C(=O)c2c[nH]c3c(C)c(F)ccc23)c2ccc(Cl)cc2OC)cc(OCCO)c1 (single isomer, unassigned) [Compound 2A, 2-(4-chloro-2-methoxyphenyl)-1-(6-fluoro-7-methyl-1H-indol-3-yl)-2-((3-(2-hydroxyethoxy)-5-methoxyphenyl)amino)ethanone]",0.021 µM,
"COc1cc(NC(C(=O)c2c[nH]c3c(C)c(Cl)ccc23)c2ccc(Cl)cc2OC)cc(OCCO)c1 (single isomer, unassigned) [Compound 3A, 2-(4-chloro-2-methoxyphenyl)-1-(6-chloro-7-methyl-1H-indol-3-yl)-2-((3-(2-hydroxyethoxy)-5-methoxyphenyl)amino)ethanone]",0.02 µM,
"COc1cc(NC(C(=O)c2c[nH]c3cc(Cl)ccc23)c2ccc(Cl)cc2OC)cc(OCCO)c1 (single isomer, unassigned) [Compound 4A, 1-(6-chloro-1H-indol-3-yl)-2-(4-chloro-2-methoxyphenyl)-2-((3-(2-hydroxyethoxy)-5-methoxyphenyl)amino)ethanone]",0.029 µM,
"COc1cc(NC(C(=O)c2c[nH]c3cc(OC)ccc23)c2ccc(Cl)cc2OC)cc(OCCO)c1 (single isomer, unassigned) [Compound 5A, 2-(4-chloro-2-methoxyphenyl)-2-((3-(2-hydroxyethoxy)-5-methoxyphenyl)amino)-1-(6-methoxy-1H-indol-3-yl)ethanone]",0.025 µM,
"COc1cc(NC(C(=O)c2c[nH]c3cc(OC)c(C)cc23)c2ccc(Cl)cc2OC)cc(OCCO)c1 (single isomer, unassigned) [Compound 6A, 2-(4-chloro-2-methoxyphenyl)-2-((3-(2-hydroxyethoxy)-5-methoxyphenyl)amino)-1-(6-methoxy-5-methyl-1H-indol-3-yl)ethanone]",< 0.015 µM,
"COc1cc(NC(C(=O)c2c[nH]c3cc(OC)c(F)cc23)c2ccc(Cl)cc2OC)cc(OCCO)c1 (single isomer, unassigned) [Compound 7A, 2-(4-chloro-2-methoxyphenyl)-1-(5-fluoro-6-methoxy-1H-indol-3-yl)-2-((3-(2-hydroxyethoxy)-5-methoxyphenyl)amino)ethanone]",< 0.017 µM,
"COc1cc(NC(C(=O)c2c[nH]c3c(C)cc(F)cc23)c2ccc(Cl)cc2OC)cc(OCCO)c1 (single isomer, unassigned) [Compound 8A, 2-(4-chloro-2-methoxyphenyl)-1-(5-fluoro-7-methyl-1H-indol-3-yl)-2-((3-(2-hydroxyethoxy)-5-methoxyphenyl)amino)ethanone]",0.032 µM,
"COc1cc(NC(C(=O)c2c[nH]c3cc(F)c(F)cc23)c2ccc(Cl)cc2OC)cc(OCCO)c1 (single isomer, unassigned) [Compound 9A, 2-(4-chloro-2-methoxyphenyl)-1-(5,6-difluoro-1H-indol-3-yl)-2-((3-(2-hydroxyethoxy)-5-methoxyphenyl)amino)ethanone]",0.018 µM,CC50 (Vero cells): 6.5 µM
"COc1cc(NC(C(=O)c2c[nH]c3c(F)cc(C)cc23)c2ccc(Cl)cc2OC)cc(OCCO)c1 (single isomer, unassigned) [Compound 10A, 2-(4-chloro-2-methoxyphenyl)-1-(7-fluoro-5-methyl-1H-indol-3-yl)-2-((3-(2-hydroxyethoxy)-5-methoxyphenyl)amino)ethanone]",0.027 µM,
"COc1cc(NC(C(=O)c2c[nH]c3c(F)c(F)ccc23)c2ccc(Cl)cc2OC)cc(OCCO)c1 (single isomer, unassigned) [Compound 11B, 2-(4-chloro-2-methoxyphenyl)-1-(6,7-difluoro-1H-indol-3-yl)-2-((3-(2-hydroxyethoxy)-5-methoxyphenyl)amino)ethanone]",0.026 µM,CC50 (Vero cells): 4.1 µM
